Laboratory results published in BindingDB's records for doi:10.1111/cbdd.12463 (University of California San Diego, 2015).

How the values were obtained:
[1] = target: T1, Decaprenyl diphosphate synthase (Mycobacterium tuberculosis (strain CDC 1551 / Oshkosh), UniProt P9WFF6); assay: DPPS Inhibition (GPP based) Assay; conditions: pH 7.5
T1 sequence (P9WFF6 whole entry): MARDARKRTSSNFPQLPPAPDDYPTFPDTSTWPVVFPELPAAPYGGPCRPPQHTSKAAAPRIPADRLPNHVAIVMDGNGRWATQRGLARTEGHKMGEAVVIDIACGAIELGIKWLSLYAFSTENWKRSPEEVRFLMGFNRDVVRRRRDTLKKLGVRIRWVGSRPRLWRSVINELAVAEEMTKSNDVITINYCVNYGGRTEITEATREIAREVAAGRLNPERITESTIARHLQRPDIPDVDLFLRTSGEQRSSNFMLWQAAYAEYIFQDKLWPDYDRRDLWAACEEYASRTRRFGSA
Description: We screened an in-house library of 43 compounds using GPP as substrate.

[2] = target: T1, Decaprenyl diphosphate synthase; assay: DPPS Inhibition (cis FPP based) Assay; conditions: pH 7.5
Description: We screened an in-house library of 19 compounds using cis-FPP as substrate.

[3] = target: T2, Tuberculosinyl adenosine transferase (Mycobacterium tuberculosis (strain CDC 1551 / Oshkosh), UniProt P9WJ60); assay: Rv3378c Inhibition Assay
T2 sequence (P9WJ60 whole entry): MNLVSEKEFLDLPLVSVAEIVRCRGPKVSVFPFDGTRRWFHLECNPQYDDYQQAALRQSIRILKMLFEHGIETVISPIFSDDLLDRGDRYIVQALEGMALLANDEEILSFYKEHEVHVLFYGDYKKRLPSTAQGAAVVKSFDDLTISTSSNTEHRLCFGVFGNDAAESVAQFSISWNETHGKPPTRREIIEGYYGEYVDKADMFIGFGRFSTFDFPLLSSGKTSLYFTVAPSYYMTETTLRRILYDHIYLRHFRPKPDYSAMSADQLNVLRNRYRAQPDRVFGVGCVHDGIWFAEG
Protocol: For inhibition assay of Rv3378c, using tuberculosinyl diphosphate and adenosine as substrates, a mixture of 100 µM TPP, 100 µM adenosine,75 µg/mL Rv3378c, and inhibitors in the assay buffer (25 mM Tris-HCl, 1 mM MgCl2, 0.01% Triton-X-100) was incubated for 2 h at 37 °C.

[4] = target: T1, Decaprenyl diphosphate synthase; assay: DPPS Inhibition (trans FPP based) Assay; conditions: pH 7.5
Description: We screened an in-house library of 53 compounds using trans-FPP as substrate.

What does the source list for `CCCCCCCCOc1ccc(F)c(C(=O)Nc2ccc(F)cc2C(=O)O)c1` [BPH-1485]?
IC50 [1]: 308 nM; IC50 [2]: 20000 nM

What does the source list for `O=C(O)c1ccccc1SCc1cccc(Oc2ccccc2)c1` [BPH-1125]?
IC50 [1]: 1200 nM; IC50 [2]: 30000 nM

For `O=P(O)(O)C(O)(Cc1cccc(-c2cccc3c2oc2ccccc23)c1)P(=O)(O)O` [[1-hydroxy-2-(3-{8-oxatricyclo[7.4.0.0^{2,7}]trideca-1(13),2,4,6,9,11-hexaen-6-yl}phenyl)-1-phosphonoethyl]phosphonic acid], which IC50 [3] is on record?
Its IC50 is 210 nM.

What about the IC50 [4] of the same compound?
The IC50 was 19000 nM.

`CCCCCCCCOc1cccc(C(=O)Nc2cccc(C(=O)O)c2C(O)O)c1` [BPH-1461] was tested. Which IC50 [1] did it give?
The IC50 was 164 nM.

What about the IC50 [2] of the same compound?
Its IC50 is 55000 nM.

For `CCCCCCCCOc1cccc(C(=O)Nc2ccc(Br)cc2C(=O)O)c1` [BPH-1264], which IC50 [1] is on record?
Its IC50 is 68 nM.

What about the IC50 [2] of the same compound?
The IC50 was 11000 nM.

`CCCCCCCCOc1cccc(C(=O)Nc2ccc([N+](=O)[O-])cc2C(=O)O)c1` [BPH-1247] was tested. Which IC50 [1] did it give?
The IC50 was 119 nM.

What about the IC50 [2] of the same compound?
The IC50 was 49000 nM.

How did the IC50 [3] turn out when `C(=C\c1cc2ccc(C3=NCCN3)cc2[nH]1)/c1cc2ccc(C3=NCCN3)cc2[nH]1` [BPH-1417] was run?
Its IC50 is 660 nM.

And the IC50 [1]?
Its IC50 is 490 nM.

And the IC50 [2]?
The IC50 was 20000 nM.

Which IC50 [3] does the source give for `O=C(Nc1cccc(C2=NCCN2)c1)c1ccc(-c2ccc(C(=O)Nc3cccc(C4=NCCN4)c3)cc2)cc1` [50460, 14] here?
The IC50 was 96000 nM.

`C=CCC(/C=C/C(=O)Nc1ccc(F)cc1C(=O)O)OCCCCCCCC` (configuration not stated) [BPH-1463] was tested. Which IC50 [1] did it give?
The IC50 was 31 nM.

And the IC50 [2]?
The IC50 was 90000 nM.

How did the IC50 [1] turn out when `CCCCCCCCOc1cc(O)cc(COc2ccc(Br)cc2C(=O)O)c1` [BPH-1311] was run?
Its IC50 is 2900 nM.

What about the IC50 [2] of the same compound?
Its IC50 is 56000 nM.

What does the source list for `O=P(O)(O)C(O)(c1cccc(-c2cccc(-c3ccccc3)c2)c1)P(=O)(O)O` [BPH-640]?
IC50 [1]: 410 nM; IC50 [2]: 610 nM
